According to ChEMBL document CHEMBL4765293, “Specific stabilization of promoter G-Quadruplex DNA by 2,6-disubstituted amidoanthracene-9,10-dione based dimeric distamycin analogues and their selective cancer cell cytotoxicity” (Eur J Med Chem, 2020):
Active and inactive are the calls of the source. The rule behind the calls is not given here.

What was measured:
Quadruplex DNA [1] = test: Binding affinity to c-Myc G4-quadruplex DNA (unknown origin) by UV- vis spectrophotometric analysis; type: nucleic-acid assay
Quadruplex DNA [2] = test: Binding affinity to human c-KIT1 G4-quadruplex DNA (unknown origin) by UV- vis spectrophotometric analysis; type: nucleic-acid assay
Quadruplex DNA [3] = test: Binding affinity to c-KIT2 G4-quadruplex DNA (unknown origin) by UV- vis spectrophotometric analysis; type: nucleic-acid assay
Quadruplex DNA [4] = test: Binding affinity to Human telomeric H21 G4 quadruplex DNA (unknown origin) in presence of KCl by UV- vis spectrophotometric analysis; type: nucleic-acid assay
Quadruplex DNA [5] = test: Binding affinity to human telomeric H21 G4 quadruplex DNA in presence of NaCl by UV- vis spectrophotometric analysis; type: nucleic-acid assay
Calf thymus DNA [6] = test: Binding affinity to calf thymus duplex DNA by UV- vis spectrophotometric analysis; type: nucleic-acid assay; settings: Bos taurus
[7] = Binding affinity to c-MYC ds DNA (unknown orgin) by UV- vis spectrophotometric analysis
[8] = Selectivity index, binding affinity to c-MYC G4 quadruplex DNA (unknown origin) to binding affinity c-MYC ds DNA (unknown origin)
Quadruplex DNA [9] = test: Binding affinity to c-MYC G4 quadruplex (unknown origin) assessed as increase in fluorescence intensity at 0.2 uM by fluorescence spectroscopic analysis; type: nucleic-acid assay
Quadruplex DNA [10] = test: Binding affinity to c-MYC G4-quadruplex DNA (unknown origin) assessed as fluorescence life time by fluorescence spectroscopic analysis relative to compound alone group; type: nucleic-acid assay
Quadruplex DNA [11] = test: Binding affinity to c-MYC G4-quadruplex DNA (unknown orgin) assessed increase in melting temperature measured after 12 hrs by thermal denaturation based spectrophotometric analysis; type: nucleic-acid assay
Quadruplex DNA [12] = test: Binding affinity to c-KIT1 G4-quadruplex DNA (unknown orgin) assessed increase in melting temperature measured after 12 hrs by thermal denaturation based spectrophotometric analysis; type: nucleic-acid assay
Quadruplex DNA [13] = test: Binding affinity to c-KIT2 G4-quadruplex DNA (unknown orgin) assessed increase in melting temperature measured after 12 hrs by thermal denaturation based spectrophotometric analysis; type: nucleic-acid assay
Quadruplex DNA [14] = test: Induction of stabilization of c-MYC G-quadruplex DNA template sequence (unknown orgin) assessed as inhibition of Taq polymerase mediated DNA polymerization at high concentration in presence K+ measured after 30 mins by Taq DNA polymerase stop assay; type: nucleic-acid assay
NIH3T3 = test: Cytotoxicity against mouse NIH3T3 cells assessed as cell viability incubated for 72 hr by MTT assay; type: cell-based; settings: NIH3T3, 72 h
[15] = Cytotoxicity against human HDFa cells assessed as cell viability incubated for 72 hr by MTT assay; type: cell-based
HEK-293T = test: Cytotoxicity against human HEK293T cells assessed as cell viability incubated for 72 hr by MTT assay; type: functional, cell-based
HeLa [16] = test: Cytotoxicity against human HeLa cells assessed as cell viability incubated for 72 hr by MTT assay; type: functional, cell-based
HeLa [17] = test: Induction of apoptosis in human HeLa cells at 100 uM after 24 to 48 hrs by annexin V/PI- staining based flow cytometric analysis; type: functional, cell-based; settings: time 24-48 hrs
HeLa [18] = test: Induction of apoptosis in human HeLa cells at 7 uM after 24 to 48 hrs by annexin V/PI- staining based flow cytometric analysis; type: functional, cell-based
HeLa [19] = test: Induction of apoptosis in human HeLa cells at 5 uM after 24 to 48 hrs by annexin V/PI- staining based flow cytometric analysis; type: functional, cell-based
HeLa [20] = test: Induction of apoptotic cell death in human HeLa cells assessed as morphological changes from the spindle-shaped cells to round-shaped at 50 to 200 uM measured after 24 hrs by acridine orange/ethidium bromide staining based fluorescence microscopy; type: functional; settings: dose 50-200 µM
HeLa [21] = test: Induction of apoptotic cell death in human HeLa cells assessed as morphological changes from the spindle-shaped cells to round-shaped at 2 to 10 uM measured after 24 hrs by acridine orange/ethidium bromide staining based fluorescence microscopy; type: functional
Quadruplex DNA [22] = test: Binding affinity to c-KIT1 G4 quadruplex (unknown origin) assessed as increase in fluorescence intensity at 0.2 uM by fluorescence spectroscopic analysis; type: nucleic-acid assay
Quadruplex DNA [23] = test: Binding affinity to c-KIT2 G4 quadruplex (unknown origin) assessed as increase in fluorescence intensity at 0.2 uM by fluorescence spectroscopic analysis; type: nucleic-acid assay
Quadruplex DNA [24] = test: Binding affinity to human telomeric H21 G4 quadruplex DNA in presence of KCl assessed as increase in fluorescence intensity at 0.2 uM by fluorescence spectroscopic analysis; type: nucleic-acid assay
Quadruplex DNA [25] = test: Binding affinity to human telomeric H21 G4 quadruplex DNA in presence of NaCl assessed as increase in fluorescence intensity at 0.2 uM by fluorescence spectroscopic analysis; type: nucleic-acid assay
Quadruplex DNA [26] = test: Binding affinity to c-MYC G4 quadruplex DNA (unknown orgin) by cyclic voltammetry; type: nucleic-acid assay
Quadruplex DNA [27] = test: Binding affinity to c-MYC G4-quadruplex DNA (unknown orgin) assessed as slight change in ellipticity of the CD signatures and topology by circular dichroism spectroscopy; type: nucleic-acid assay
Quadruplex DNA [28] = test: Binding affinity to human telomeric H21 G4-quadruplex DNA assessed as slight change in ellipticity of the CD signatures and topology in presence KCl of by circular dichroism spectroscopy; type: nucleic-acid assay
Quadruplex DNA [29] = test: Binding affinity to human telomeric H21 G4-quadruplex DNA assessed as slight change in ellipticity of the CD signatures and topology in presence NaCl of by circular dichroism spectroscopy; type: nucleic-acid assay
Calf thymus DNA [30] = test: Binding affinity to calf thymus duplex DNA assessed as slight change in ellipticity of the CD signatures and topology by circular dichroism spectroscopy; type: nucleic-acid assay; settings: Bos taurus
Homo sapiens = species: Homo sapiens; test: Binding affinity to c-MYC ds DNA (unknown origin) assessed as slight change in ellipticity of the CD signatures and topology by circular dichroism spectroscopy
Quadruplex DNA [31] = test: Binding affinity to c-MYC G4-quadruplex DNA (unknown orgin) at 100 uM by ethidium bromide displacement assay; type: nucleic-acid assay
HeLa [32] = test: Induction of apoptotic cell death in human HeLa cells assessed as change in nuclear morphology at 3 to 5 uM after 12 hrs by acridine orange/ethidium bromide staining based fluorescence microscopy; type: functional; settings: dose 3-5 µM
HeLa [33] = test: Induction of apoptosis in human HeLa cells assessed as nuclear condensation and fragmentation at 5 uM measured after 24 hrs by DAPI staining based confocal laser scanning microscopy analysis; type: functional, cell-based
HeLa [34] = test: Induction of apoptotic cell death in human HeLa cells assessed as change in nuclear morphology at 5 to 7 uM after 12 hrs by acridine orange/ethidium bromide staining based fluorescence microscopy; type: functional; settings: dose 5-7 µM
HeLa [35] = test: Induction of apoptosis in human HeLa cells assessed as nuclear condensation and fragmentation at 7 uM measured after 24 hrs by DAPI staining based confocal laser scanning microscopy analysis; type: functional, cell-based

| Structure (SMILES) | Ka (Quadruplex DNA [1]) | Ka (Quadruplex DNA [2]) | Ka (Quadruplex DNA [3]) | Ka (Quadruplex DNA [4]) | Ka (Quadruplex DNA [5]) | Ka (Calf thymus DNA [6]) | Ka [7] | Selectivity Index [8] | Activity (Quadruplex DNA [9]) | Time (Quadruplex DNA [10]) [nanoseconds] | ΔTm (Quadruplex DNA [11]) [°C] | ΔTm (Quadruplex DNA [12]) [°C] | ΔTm (Quadruplex DNA [13]) [°C] | Activity (Quadruplex DNA [14]) | IC50 (NIH3T3) [µM] | IC50 [15] [µM] | Activity (Quadruplex DNA [22]) | Activity (Quadruplex DNA [23]) | Activity (Quadruplex DNA [24]) | Activity (Quadruplex DNA [25]) | further results |
| --- | --- | --- | --- | --- | --- | --- | --- | --- | --- | --- | --- | --- | --- | --- | --- | --- | --- | --- | --- | --- | --- |
| Cn1cccc1C(=O)NCCC[N+](C)(C)CC(=O)Nc1ccc2c(c1)C(=O)c1ccc(NC(=O)C[N+](C)(C)CCCNC(=O)c3cccn3C)cc1C2=O.[Cl-].[Cl-] | 1.4 10^6/M | 0.6 10^6/M | 0.8 10^6/M | 0.5 10^6/M | 0.6 10^6/M | 0.02 10^6/M | 0.025 10^6/M | 70 | Active | 0.54 | 3.2 | 4.7 | 1.2 | Active | > 100 | > 100 | Active | Active | Active | Active | IC50 (HEK-293T): 43 µM; IC50 (HeLa [16]): > 100 µM; Activity (HeLa [17]): Active; AC50 (HeLa [18]): Active; AC50 (HeLa [19]): Active; Activity (HeLa [20]): Active; AC50 (HeLa [21]): Active |
| Cn1cc(NC(=O)c2cc(NC(=O)c3cccn3C)cn2C)cc1C(=O)NCCC[N+](C)(C)CC(=O)Nc1ccc2c(c1)C(=O)c1ccc(NC(=O)C[N+](C)(C)CCCNC(=O)c3cc(NC(=O)c4cc(NC(=O)c5cccn5C)cn4C)cn3C)cc1C2=O | 3.8 10^6/M | 3.1 10^6/M | 4.1 10^6/M | 1.1 10^6/M | 0.6 10^6/M | 0.01 10^6/M | 0.012 10^6/M | 380 | Active | 0.37 | 11.1 | 9.9 | 6.8 | Active | > 100 | > 100 | Active | Active | Active | Active | Activity (Quadruplex DNA [26]): Active; Activity (Quadruplex DNA [27]): Active; Activity (Quadruplex DNA [28]): Active; Activity (Quadruplex DNA [29]): Active; Activity (Calf thymus DNA [30]): Active; Activity (Homo sapiens): Active; Activity (Quadruplex DNA [31]): Active; IC50 (HEK-293T): 15 µM; IC50 (HeLa [16]): 5.3 µM; Activity (HeLa [32]): Active; Activity (HeLa [33]): Active |
| Cn1cc(NC(=O)c2cccn2C)cc1C(=O)NCCC[N+](C)(C)CC(=O)Nc1ccc2c(c1)C(=O)c1ccc(NC(=O)C[N+](C)(C)CCCNC(=O)c3cc(NC(=O)c4cccn4C)cn3C)cc1C2=O | 2.8 10^6/M | 1.3 10^6/M | 1.8 10^6/M | 0.3 10^6/M | 0.6 10^6/M | 0.016 10^6/M | 0.018 10^6/M | 175 | Active | 0.55 | 7.4 | 7.9 | 5.1 | Active | > 100 | > 100 | Active | Active | Active | Active | Activity (Quadruplex DNA [27]): Active; Activity (Quadruplex DNA [28]): Active; Activity (Quadruplex DNA [29]): Active; Activity (Calf thymus DNA [30]): Active; Activity (Homo sapiens): Active; Activity (Quadruplex DNA [31]): Active; IC50 (HEK-293T): 19 µM; IC50 (HeLa [16]): 7.4 µM; Activity (HeLa [34]): Active; Activity (HeLa [35]): Active |
| C[N+](C)(C)CC(=O)Nc1ccc2c(c1)C(=O)c1ccc(NC(=O)C[N+](C)(C)C)cc1C2=O | 0.16 10^6/M | 0.11 10^6/M | 0.09 10^6/M | 0.07 10^6/M | 0.05 10^6/M | 0.06 10^6/M | 0.05 10^6/M | 3.2 |  |  |  |  |  |  |  |  | Active | Active | Active | Active |  |
